Data published in patent US20090197856A1, “ANTIVIRAL COMPOUNDS” (Genelabs Technologies, Inc., priority 2007, published 2009).

What follows are molecules tested against T1, HCV-NS5b (Hepatitis C virus genotype 1b, UniProt Q9WMX2) (assay: HCV-NS5b enzyme assay using homopolymer substrate). Settings: not given.
T1 construct: (His)6 (C); made in house; host or cells: XL-1 cells (E. coli), IPTG-inducible plasmid
Type: biochemical
Source text: The coding sequence of NS5b protein was cloned by PCR from pFKI389luc/NS3-3′/ET as described by Lohmann, V., et al. (1999) Science 285, 110-113 using the primers shown on page 266 of WO 2005/012288
The cloned fragment is missing the C terminus 21 amino acid residues. The cloned fragment was inserted into an IPTG-inducible (isopropyl-β-D-thiogalactopyranoside) expression plasmid that provides an epitope tag (His)6 at the carboxy terminus of the protein.
The recombinant enzyme was expressed in XL-1 cells and after induction of expression, the protein was purified using affinity chromatography on a nickel-NTA (nitrilotriacetic acid) column. Storage condition was 10 mM Tris-HCl pH 7.5, 50 mM NaCl, 0.1 mM EDTA (ethylenediaminetetraacetic acid), 1 mM DTT (dithiothreotol), 20% glycerol at −20° C.
The polymerase activity was assayed by measuring incorporation of radiolabeled UTP into a RNA product using a biotinylated, homopolymeric template. The template was formed by annealing adenosine homopolymer to uridine 20-mer capped with a 5′-biotin group (biotin-U^20) in the ratio of 1:4. Typically, the assay mixture (50 μL) contained 25 mM Tris-HCl (pH 7.5), 40 mM KCl, 0.3 mM MgCl2, 0.05 mM EDTA, 0.2 unit/μL Superase RNAse Inhibitor, 5 mM DTT, 30 μM UTP (Uridine triphosphate), including [^3H]-UTP (uridine triphosphate) at 0.4 μCi/μL with final concentration of 1 μM, and 50 nM of homopolymeric template. Test compounds were initially dissolved in 100% DMSO and further diluted in aqueous buffer containing 5% DMSO. Typically, compounds were tested at concentrations between 2 nM and 50 μM. Reactions were started with addition of enzyme and allowed to continue at 30° C. for 90 minutes. Reactions were quenched with 8 μL of 100 mM EDTA and reaction mixtures (30 μL) were transferred to streptavidin-coated scintillation proximity microtiter plates (FlashPlates) and incubated at room temperature overnight. Incorporation of radioactivity was determined by scintillation counting.
Inhibitor IC50 values were determined by adding test compound as ten point, two-fold serial dilutions in 100% DMSO with a final reaction concentration of 5%. IC50 was calculated by plotting the % inhibition against compound concentration and fitting the data to a constrained four parameter sigmoidal curve, equivalent to the “four parameter logistic equation”:
Where Bottom is the minimum Y value, Top is the maximum Y value, and Hillslope is the slope of the linear portion of the semi-log curve. Top and Bottom were constrained to values of 0% and 100%, respectively. These analyses were performed using Graphpad Prism v.4.0 (Graphpad Software, Inc.) in conjunction with DS Accord for EXCEL 6.0 (Accelrys, Microsoft Corp.).
The table below lists the IC50 values of compounds determined using the homopolymer substrates.

SMILES | IC50 [nM]
O=C(O)c1ccc2c(C3CCCCC3)c3n(c2c1)CCCn1cc(C2=CCNCC2)c2cccc-3c21 [Compound 397] | 218
CC(=O)c1cn2c3c(cccc13)-c1c(C3CCCCC3)c3ccc(C(=O)O)cc3n1CCC2 [Compound 402] | 168

Same assay, conditions: homopolymer substrate, [3H]-UTP incorporation, 30° C., 90 minutes; read-out: IC50

IC50 [nM] | SMILES
176 | CCN(Cc1cn2c3c(cccc13)-c1c(C3CCCCC3)c3ccc(C(=O)O)cc3n1CCC2)C(C)C [Compound 361]
337 | COCCN(CCOC)Cc1cn2c3c(cccc13)-c1c(C3CCCCC3)c3ccc(C(=O)O)cc3n1CCC2 [Compound 362]
124 | O=C(O)c1ccc2c(C3CCCCC3)c3n(c2c1)CCCn1cc(CN(CCO)CCO)c2cccc-3c21 [Compound 363]
277 | CC1CCC(NCc2cn3c4c(cccc24)-c2c(C4CCCCC4)c4ccc(C(=O)O)cc4n2CCC3)CC1 (stereo not shown) [Compound 364]
88 | CC(=O)N1CCN(Cc2cn3c4c(cccc24)-c2c(C4CCCCC4)c4ccc(C(=O)O)cc4n2CCC3)CC1 [Compound 365]
121 | CCCNCc1cn2c3c(cccc13)-c1c(C3CCCCC3)c3ccc(C(=O)O)cc3n1CCC2 [Compound 366]
158 | CC(C)CNCc1cn2c3c(cccc13)-c1c(C3CCCCC3)c3ccc(C(=O)O)cc3n1CCC2 [Compound 367]
303 | CN(C)CCNCc1cn2c3c(cccc13)-c1c(C3CCCCC3)c3ccc(C(=O)O)cc3n1CCC2 [Compound 368]
171 | CN(C)C(=O)CNCc1cn2c3c(cccc13)-c1c(C3CCCCC3)c3ccc(C(=O)O)cc3n1CCC2 [Compound 369]
94 | O=C(O)c1ccc2c(C3CCCCC3)c3n(c2c1)CCCn1cc(CNC2CCCOC2)c2cccc-3c21 (stereo not shown) [Compound 370]
109 | O=C(O)c1ccc2c(C3CCCCC3)c3n(c2c1)CCCn1cc(CNC2CCCC2)c2cccc-3c21 [Compound 371]
106 | CNCc1cn2c3c(cccc13)-c1c(C3CCCCC3)c3ccc(C(=O)O)cc3n1CCC2 [Compound 372]
153 | CS(=O)(=O)NC(=O)c1ccc2c(C3CCCCC3)c3n(c2c1)CCCn1cc(CN2CCCCC2)c2cccc-3c21 [Compound 373]
365 | O=C(NC1CC1)c1ccc2c(C3CCCCC3)c3n(c2c1)CCCn1cc(CN2CCCCC2)c2cccc-3c21 [Compound 374]
177 | CN(C)S(=O)(=O)NC(=O)c1ccc2c(C3CCCCC3)c3n(c2c1)CCCn1cc(CN2CCCCC2)c2cccc-3c21 [Compound 375]
641 | CCN(C)Cc1cn2c3c(cccc13)-c1c(C3CCCCC3)c3ccc(C(=O)OC)cc3n1CCC2 [Compound 376]
199 | O=C(O)c1ccc2c(C3CCCCC3)c3n(c2c1)CCCn1cc(CNC2CCCCC2)c2cccc-3c21 [Compound 378]
117 | CCC(C)NCc1cn2c3c(cccc13)-c1c(C3CCCCC3)c3ccc(C(=O)O)cc3n1CCC2 (stereo not shown) [Compound 379]
93 | O=C(O)CNCc1cn2c3c(cccc13)-c1c(C3CCCCC3)c3ccc(C(=O)O)cc3n1CCC2 [Compound 380]

IC50 [nM] | SMILES
117 | COCCNCc1cn2c3c(cccc13)-c1c(C3CCCCC3)c3ccc(C(=O)O)cc3n1CCC2 [Compound 381]
141 | CC1CCC(C)N1Cc1cn2c3c(cccc13)-c1c(C3CCCCC3)c3ccc(C(=O)O)cc3n1CCC2 (stereo not shown) [Compound 382]
85 | O=C(O)c1ccc2c(C3CCCCC3)c3n(c2c1)CCCn1cc(CNC2CCC2)c2cccc-3c21 [Compound 383]
65 | O=C(O)c1ccc2c(C3CCCCC3)c3n(c2c1)CCCn1cc(CN[C@H]2CC[C@H](O)CC2)c2cccc-3c21 [Compound 384]
133 | O=C(O)c1ccc2c(C3CCCCC3)c3n(c2c1)CCCn1cc(CN2CCC(O)CC2)c2cccc-3c21 [Compound 385]
196 | O=C(O)c1ccc2c(C3CCCCC3)c3n(c2c1)CCCn1cc(CNCc2cccnc2)c2cccc-3c21 [Compound 386]
180 | CON(C)Cc1cn2c3c(cccc13)-c1c(C3CCCCC3)c3ccc(C(=O)O)cc3n1CCC2 [Compound 387]
159 | O=C(O)c1ccc2c(C3CCCCC3)c3n(c2c1)CCCn1cc(CNCCO)c2cccc-3c21 [Compound 388]
237 | O=C(O)c1ccc2c(C3CCCCC3)c3n(c2c1)CCCn1cc(CN2CCC(O)C2)c2cccc-3c21 (stereo not shown) [Compound 390]
211 | CS(=O)(=O)CCNCc1cn2c3c(cccc13)-c1c(C3CCCCC3)c3ccc(C(=O)O)cc3n1CCC2 [Compound 391]
105 | C[C@@H]1CC[C@@H](C)N1Cc1cn2c3c(cccc13)-c1c(C3CCCCC3)c3ccc(C(=O)O)cc3n1CCC2 [Compound 392]
138 | CCC(C)(C)NCc1cn2c3c(cccc13)-c1c(C3CCCCC3)c3ccc(C(=O)O)cc3n1CCC2 [Compound 393]
159 | O=C(O)c1ccc2c(C3CCCCC3)c3n(c2c1)CCCn1cc(CN2CCS(=O)(=O)CC2)c2cccc-3c21 [Compound 394]
140 | NCc1cn2c3c(cccc13)-c1c(C3CCCCC3)c3ccc(C(=O)O)cc3n1CCC2 [Compound 395]
126 | CC1Cn2cc(CN3CCCCC3)c3cccc(c32)-c2c(C3CCCCC3)c3ccc(C(=O)O)cc3n2C1 (stereo not shown) [Compound 396]
204 | O=C(O)c1ccc2c(C3CCCCC3)c3n(c2c1)CCCn1cc(C2CCNCC2)c2cccc-3c21 [Compound 398]
220 | CN1CCC(c2cn3c4c(cccc24)-c2c(C4CCCCC4)c4ccc(C(=O)O)cc4n2CCC3)CC1 [Compound 399]
250 | CC(C)N1CCC(c2cn3c4c(cccc24)-c2c(C4CCCCC4)c4ccc(C(=O)O)cc4n2CCC3)CC1 [Compound 400]
140 | O=C(O)c1ccc2c(C3CCCCC3)c3n(c2c1)CCCn1cc(C2CCN(CCO)CC2)c2cccc-3c21 [Compound 401]

IC50 [nM] | SMILES
207 | CCC1CN2CCCn3c(c(C4CCCCC4)c4ccc(C(=O)O)cc43)-c3cccc1c32 (stereo not shown) [Compound 403]
257 | O=C(O)c1ccc2c(C3CCCCC3)c3n(c2c1)CCCn1c(C(=O)NCCN2CCCCC2)cc2cccc-3c21 [Compound 404]
139 | CN(C)C(=O)c1cc2cccc3c2n1CCCn1c-3c(C2CCCCC2)c2ccc(C(=O)O)cc21 [Compound 405]
136 | O=C(O)c1ccc2c(C3CCCCC3)c3n(c2c1)CCCn1c(C(=O)N2CCCCC2)cc2cccc-3c21 [Compound 406]
253 | O=C(O)c1ccc2c(C3CCCCC3)c3n(c2c1)CCCn1c(C(=O)O)cc2cccc-3c21 [Compound 407]
142 | CCN(CC)C1CCN(C(=O)c2cc3cccc4c3n2CCCn2c-4c(C3CCCCC3)c3ccc(C(=O)O)cc32)CC1 [Compound 408]
114 | CN1CCN(C(=O)c2cc3cccc4c3n2CCCn2c-4c(C3CCCCC3)c3ccc(C(=O)O)cc32)CC1 [Compound 409]
384 | CCN(C)Cc1c(C(=O)N(C)C)n2c3c(cccc13)-c1c(C3CCCCC3)c3ccc(C(=O)O)cc3n1CCC2 [Compound 410]
277 | CN(C)Cc1cc2cccc3c2n1CCCn1c-3c(C2CCCCC2)c2ccc(C(=O)O)cc21 [Compound 411]
179 | CN1CCN(C(=O)c2c(Cl)c3cccc4c3n2CCCn2c-4c(C3CCCCC3)c3ccc(C(=O)O)cc32)CC1 [Compound 412]
105 | NC(=O)c1cc2cccc3c2n1CCCn1c-3c(C2CCCCC2)c2ccc(C(=O)O)cc21 [Compound 413]
98 | O=C(O)c1ccc2c(C3CCCCC3)c3n(c2c1)CCCn1c(CN2CCCCC2)cc2cccc-3c21 [Compound 414]
170 | CN1CCN(Cc2cc3cccc4c3n2CCCn2c-4c(C3CCCCC3)c3ccc(C(=O)O)cc32)CC1 [Compound 415]
146 | O=C(O)c1ccc2c(C3CCCCC3)c3n(c2c1)CCCn1c2c-3cccc2c2c(=O)[nH][nH]c(=O)c21 [Compound 416]
99 | CNC(=O)c1cc2cccc3c2n1CCCn1c-3c(C2CCCCC2)c2ccc(C(=O)O)cc21 [Compound 417]
144 | NCc1cc2cccc3c2n1CCCn1c-3c(C2CCCCC2)c2ccc(C(=O)O)cc21 [Compound 418]
180 | CC(C)N1Cc2c(n3c4c(cccc24)-c2c(C4CCCCC4)c4ccc(C(=O)O)cc4n2CCC3)C1=O [Compound 419]
472 | O=C(O)c1ccc2c(C3CCCCC3)c3n(c2c1)CCCn1c2c(c4cccc-3c41)CN(C1CCCCC1)C2=O [Compound 421]
